From patent US4343808A, “Method of inhibiting sickling of sickle erythrocytes” (The Dow Chemical Company, priority 1980, dated 1982)

Assays:
[1] = target: Hb-S (Homo sapiens, UniProt P68871+P69905, E7V); test: Oxygen-Affinity Assay (whole Hb-S blood); format: cell-based; conditions: 37° C.
Protocol: The compounds described herein were tested in an "Oxygen-Affinity Assay" to measure the ability of the compound to influence the Hb-S oxygen affinity. There is a relationship between oxygen binding and Hb-S gelation and thus a measure of oxygen affinity is an index of Hb-S aggregation within the red blood cell. Hemoglobin S polymers decrease the overall oxygen affinity. Thus a return to normal of Hb-S oxygen affinity is a measure of decreased gelation.
For measurements of oxygen equilibria whole Hb-S blood was equilibrated in a tonometer at 37° C. and measurements were made in the presence of a 10 millimolar (mM) concentration of the test compound. Some of the compounds were also tested at a 5 mM concentration. The whole blood pH, oxygen tension, and blood PO2 were measured.
The percentage of oxygen saturation was plotted against the partial pressure of oxygen (mm Hg). The P50 value (oxygen tension at 50% saturation) was determined for each control and treated whole blood sample and the difference (ΔP50) between the control and treated whole blood sample noted. As used herein, a negative ΔP50 represents a change toward a normal Hb-S oxygen affinity and thus is a measure of the test compound's ability to inhibit the sickling of sickle erythrocytes.

[2] = tested on: sickle erythrocytes (intact sickle cells); test: Blockade Erythrocyte Morphology, deoxygenation induced sickling; format: cell-based, human
Protocol: The compound 2-((4-cyanophenoxy)methyl)-2-imidazoline p-toluenesulfonate (Example 2) and 2-((3-cyanophenoxy)methyl)-2-imidazoline p-toluenesulfonate (Example 4) were tested for anti-sickling activity using a suspension of intact sickle cells as follows:
Blood collected from individuals with homozygous sickle cell disease, as well as normal blood, was anticoagulated with ethylenediaminetetraacetic acid (EDTA) and refrigerated until used. To portions of the blood samples were added appropriate volumes of a solution of the compound to be tested so that final concentrations of 0.0125 molar (M), 0.025 M, 0.05 M or 0.1 M were obtained, and the mixtures were incubated at 37° C. for 30 minutes. The test compounds were dissolved in saline. Appropriate volumes of saline were added to the control samples. Urea in invert sugar (UIS) at 0.05 M to 1.5 M concentrations was used as an agent capable of transforming sickled cells into normal forms and was therefore used as a positive control.
Anoxic sickling (deoxygenation) was induced by exposing sickle blood to a hydrated 95% nitrogen, 5% carbon dioxide atmosphere for 60 minutes.
After the sickling stimulus, slides were prepared. A volume of 0.2 ml of sickled cells were fixed in 1.0 ml of 3.2% glutaraldehyde in 0.1 M cacodylic buffer. Wet slides were prepared and sealed.
The slides were scored for normal cells (Typ.), atypical cells (Atyp.) and sickled cells (Sickle) on the basis of counting 300 cells per slide.

[3] = target: T1, deoxyhemoglobin S (Deoxy Hb-S) (Homo sapiens, UniProt P68871+P69905, E7V); test: Solubility of deoxyhemoglobin S (hemoglobin gelation); format: biochemical; conditions: 10 mM
T1 construct: native tetramer alpha2 betaS2
Protocol: The compound 2-((3-cyanophenoxy)methyl)-2-imidazoline p-toluenesulfonate was tested to determine its ability to inhibit sickle erythrocyte hemoglobin gelation as follows:
The solubility of deoxyhemoglobin S (Deoxy Hb-S) was determined utilizing substantially the same procedure described by Behe, M. J., Englander, S. W., Biochemistry 18: 4196-4201 (1979). Assays were done to determine the equilibrium solubility of Hb-S in the presence of inhibitor (i.e., test compound). […] Test mixtures were placed in a 4 centimeter (cm) length of thin quartz tubing sealed at one end, and then incubated at 37° C. for two hours to achieve gelation, and then re-equilibrated in a water bath (20° C.) for 20 minutes. The quartz tubing containing the test mixture was then placed in a glycerol filled centrifuge tube (topped by a rubber ring to center the quartz tubing) and centrifuged for two hours at 140,000 times gravity. […] The concentration of the hemoglobin in the supernatant was determined by measuring the absorbance at 540 nanometers (nm) after a 300-fold dilution with normally oxygenated buffer.
The Relative Solubility is a measure of the ability of the test compound to increase the solubility of deoxyhemoglobin S and is readily determined by comparing the solubility of the treated (i.e., test compound present) sample versus the control (i.e., test compound absent) sample.

[4] = deoxygenation, 0.0125 M, vs control
[5] = deoxygenation, 0.025 M, vs control
[6] = deoxygenation, 0.05 M, vs control

SMILES: Cl.c1ccc(OCC2=NCCN2)cc1 [Example 8, 2-(Phenoxymethyl)-2-imidazoline Hydrochloride]
- Δ P50 (oxygen tension at 50% saturation, difference control vs treated) ([1]; 10 mM): -5.0 mm Hg

SMILES: Cl.FC(F)(F)c1cccc(NCC2=NCCN2)c1 [Example 6, 2-((3-Trifluoromethylanilino)methyl)-2-imidazoline Hydrochloride]
- Δ P50 (oxygen tension at 50% saturation, difference control vs treated) ([1]; 10 mM): -4.3 mm Hg

SMILES: Cc1ccc(S(=O)(=O)O)cc1.N#Cc1cccc(OCC2=NCCN2)c1 [Example 4, 2-((3-cyanophenoxy)methyl)-2-imidazoline p-toluenesulfonate]
- inhibition at 12500 µM ([2]; Homo sapiens, Erythrocyte, deoxygenation, 0.0125 M, vs control, read-out: Percent Change, Sickle (sickled cells)): 33%
- inhibition at 25000 µM ([2]; Homo sapiens, Erythrocyte, deoxygenation, 0.025 M, vs control, read-out: Percent Change, Sickle (sickled cells)): 69%
- inhibition at 50000 µM ([2]; Homo sapiens, Erythrocyte, deoxygenation, 0.05 M, vs control, read-out: Percent Change, Sickle (sickled cells)): 77%
- interference with deoxygenation induced sickling ([2]; Table 1): interfered with deoxygenation induced sickling
- Lysis ([2]; deoxygenation, 0.0125 M): -
- Percent Change, Atyp. (atypical cells) [2, 4]: -65%
- Percent Change, Typ. (normal cells) [2, 4]: +201%
- Lysis ([2]; deoxygenation, 0.025 M): -
- Percent Change, Atyp. (atypical cells) [2, 5]: -78%
- Percent Change, Typ. (normal cells) [2, 5]: +316%
- Lysis ([2]; deoxygenation, 0.05 M): -
- cell lysis (in words) ([2]; deoxygenation, 0.05 M): without the appearance of cell lysis
- Percent Change, Atyp. (atypical cells) [2, 6]: -74%
- Percent Change, Typ. (normal cells) [2, 6]: +407%
- Δ P50 (oxygen tension at 50% saturation, difference control vs treated) ([1]; 5 mM): -1 mm Hg
- Δ P50 (oxygen tension at 50% saturation, difference control vs treated) ([1]; 10 mM): -13.7 mm Hg
- solubility of deoxyhemoglobin S (in words) [3]: increased

SMILES: CSc1ccc(OCC2=NCCN2)cc1C [Example 5, 2-((4-(Methylthio)-m-tolyloxy)methyl)-2-imidazoline]
- Δ P50 (oxygen tension at 50% saturation, difference control vs treated) ([1]; 5 mM): -11 mm Hg
- Δ P50 (oxygen tension at 50% saturation, difference control vs treated) ([1]; 10 mM): -14.7 mm Hg
